± gives the standard deviation of the averaged measurements.
Columns and labels:
Details in all cases: treatment time: 3 days
[1] = system: UT-SCC-24A; experiment: maximal % inhibition of viability relative to DMSO; higher = stronger effect
Procedure: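 HNSCC cell lines (500 cells/well, 384-well) were cultured on plastic, on top of (2D) or embedded (3D) in Matrigel or human leiomyoma matrix Myogel (500 ug/mL; Myogel 3D mixed with rat collagen I). Cells were treated for 3 days with 5 ten-fold concentrations of each drug, and viability was read by CellTiter-Glo. Viability was normalised to DMSO (0% inhibition) and 100 uM benzethonium chloride (100% inhibition) controls and fitted with the FIMM DSRT pipeline to give IC50 (nM), maximal % inhibition and the drug sensitivity score (DSS). Suffixes _1/_2/_3 on drug names are replicates.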

[2] = system: UT-SCC-24B; experiment: drug sensitivity score (DSS); higher = more sensitive; extreme values may be limits of the assay
Method in brief: (§1)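 Viability of HPV-negative HNSCC cell lines was measured by CellTiter-Glo 2.0 luminescence. Cells were seeded at 500 cells/well in 384-well plates on plastic, on Matrigel- or Myogel-coated wells (500 µg/mL), or embedded in Matrigel or Myogel plus rat collagen I, then given compounds at five 10-fold concentrations for 3 days, with signals normalised to vehicle (0.1% DMSO) and cell-killing control wells. Fitting of percent-inhibition dose–response curves in the FIMM pipeline yielded IC50, maximal inhibition and drug sensitivity score.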

[3] = system: UT-SCC-28; experiment: as above
Method in brief: as §1

[4] = system: UT-SCC-40; experiment: as above
Method in brief: as §1

[5] = system: UT-SCC-44; experiment: as above
Method in brief: as §1

[6] = system: UT-SCC-73; experiment: as above
Method in brief: as §1

[7] = system: UT-SCC-81; experiment: as above
Method in brief: as §1

[8] = system: UT-SCC-8; experiment: as above
Method in brief: as §1

[9] = system: UT-SCC-106A; experiment: relative IC50 (midpoint of the fitted curve; maximal inhibition may be below 50%); higher = less potent
Method in brief: as §1

[10] = system: UT-SCC-14; experiment: as above
Method in brief: as §1

[11] = system: UT-SCC-24B; experiment: as above
Method in brief: as §1

[12] = system: UT-SCC-28; experiment: as above
Method in brief: as §1

[13] = system: UT-SCC-40; experiment: as above
Method in brief: as §1

[14] = system: UT-SCC-42A; experiment: as above
Method in brief: as §1

[15] = system: UT-SCC-42B; experiment: as above
Method in brief: as §1

[16] = system: UT-SCC-44; experiment: as above
Method in brief: as §1

[17] = system: UT-SCC-73; experiment: as above
Method in brief: as §1

[18] = system: UT-SCC-81; experiment: as above
Method in brief: as §1

[19] = system: UT-SCC-8; experiment: as above
Method in brief: as §1

[20] = culture condition: embedded in Matrigel
[21] = culture condition: embedded in Myogel + collagen I
[22] = culture condition: on top of Matrigel
[23] = culture condition: on top of Myogel
[24] = culture condition: plastic 2D (no matrix)

relative IC50 [9, 20]: 11.7 nM
relative IC50 [9, 21]: 491 nM
relative IC50 [9, 22]: 11.5 nM
relative IC50 [9, 23]: 768 nM
relative IC50 [9, 24]: 19 nM
relative IC50 [10, 22]: 250 nM
relative IC50 [10, 23]: 416 nM
relative IC50 [10, 24]: 637 nM
relative IC50 [11, 20]: 150 nM
relative IC50 [11, 21]: 212 nM
relative IC50 [11, 22]: 184 nM
relative IC50 [11, 23]: 653 nM
relative IC50 [11, 24]: 102 nM
relative IC50 [12, 20]: 76.8 nM
relative IC50 [12, 22]: 98.8 nM
relative IC50 [13, 20]: 12.9 nM
relative IC50 [13, 21]: 45.4 nM
relative IC50 [13, 22]: 30.1 nM
relative IC50 [13, 23]: 89.4 nM
relative IC50 [13, 24]: 89 nM
relative IC50 [14, 20]: 14.2 nM
relative IC50 [14, 21]: 183 nM
relative IC50 [14, 22]: 17.6 nM
relative IC50 [14, 24]: 40.8 nM
relative IC50 [15, 20]: 12.4 nM
relative IC50 [15, 22]: 42.6 nM
relative IC50 [15, 23]: 221 nM
relative IC50 [15, 24]: 123 nM
relative IC50 [16, 22]: 35.2 nM
relative IC50 [16, 23]: 148 nM
relative IC50 [17, 20]: 20.4 nM
relative IC50 [17, 21]: 95.9 nM
relative IC50 [17, 22]: 21 nM
relative IC50 [17, 23]: 64.6 nM
relative IC50 [17, 24]: 37.6 nM
relative IC50 [18, 20]: 14.5 nM
relative IC50 [18, 22]: 43.5 nM
relative IC50 [18, 23]: 532 nM
relative IC50 [18, 24]: 223 nM
relative IC50 [19, 20]: 122 nM
relative IC50 [19, 21]: 773 nM
relative IC50 [19, 22]: 159 nM
relative IC50 [19, 23]: 163 nM
relative IC50 [19, 24]: 228 nM
Structure (SMILES): O=C(NC[C@H](O)CO)c1ccncc1Nc1ccc(I)cc1F [Pimasertib]
maximal % inhibition of viability [1, 20]: 85 ± 0.94%
maximal % inhibition of viability [1, 21]: 77.9 ± 2.9%
maximal % inhibition of viability [1, 22]: 81.4 ± 1.8%
maximal % inhibition of viability [1, 23]: 68 ± 3.4%
maximal % inhibition of viability [1, 24]: 79.3 ± 2.7%
drug sensitivity score [2, 20]: 15.6 ± 1.2 DSS
drug sensitivity score [2, 21]: 14.4 ± 2 DSS
drug sensitivity score [2, 22]: 15 ± 0.9 DSS
drug sensitivity score [2, 23]: 9.1 ± 0.61 DSS
drug sensitivity score [2, 24]: 20.3 ± 1.8 DSS
drug sensitivity score [3, 20]: 12 ± 2.6 DSS
drug sensitivity score [3, 21]: 9.97 ± 5.3 DSS
drug sensitivity score [3, 22]: 11.4 ± 1.6 DSS
drug sensitivity score [3, 24]: 5.03 ± 1.1 DSS
drug sensitivity score [4, 20]: 27.63 ± 0.058 DSS
drug sensitivity score [4, 21]: 20.2 ± 1.9 DSS
drug sensitivity score [4, 22]: 23.8 ± 1.2 DSS
drug sensitivity score [4, 23]: 14.9 ± 0.91 DSS
drug sensitivity score [4, 24]: 15.5 ± 0.85 DSS
drug sensitivity score [5, 20]: 26.7 ± 2.9 DSS
drug sensitivity score [5, 21]: 11.7 ± 3 DSS
drug sensitivity score [5, 22]: 22.7 ± 1.1 DSS
drug sensitivity score [5, 23]: 13.1 ± 2.4 DSS
drug sensitivity score [5, 24]: 16.4 ± 4 DSS
drug sensitivity score [6, 20]: 27.8 ± 0.5 DSS
drug sensitivity score [6, 21]: 18.7 ± 4.6 DSS
drug sensitivity score [6, 22]: 25.9 ± 0.64 DSS
drug sensitivity score [6, 23]: 19.1 ± 1.1 DSS
drug sensitivity score [6, 24]: 23 ± 0.68 DSS
drug sensitivity score [7, 20]: 29.9 ± 0.51 DSS
drug sensitivity score [7, 21]: 9.3 ± 3.1 DSS
drug sensitivity score [7, 22]: 24 ± 1.8 DSS
drug sensitivity score [7, 23]: 9.87 ± 0.5 DSS
drug sensitivity score [7, 24]: 14.9 ± 1.4 DSS
drug sensitivity score [8, 20]: 20.5 ± 1.8 DSS
drug sensitivity score [8, 21]: 10.7 ± 0.15 DSS
drug sensitivity score [8, 22]: 18.2 ± 1.3 DSS
drug sensitivity score [8, 23]: 17 ± 1.6 DSS
drug sensitivity score [8, 24]: 16.9 ± 1.8 DSS

— the supplement of paper PMC7017272
